# “Also recorded” adds a separate entry of the source. Like-named read-outs stand apart in the source and are kept apart here.
# Legend:
# fibrocystic disease = settings: human, in vivo; cited from earlier work
# [1] = system: breast tissue from a female rat on an iodine deficient diet; experiment: Carcinogen added to iodine deficient rat model (FIG. 6); format: in vivo; settings: iodine deficient diet (FIG. 6)
# From the text: This finding is supportive of the inventors' contention that fibrocystic disease enhances the risk of breast cancer causing sensitization of the breast tissue to various stimuli, including carcinogens. This sensitization process may explain the increased incidence of breast cancer in women in areas of deficient iodine intake, reported by Moosa et al. in "Thyroid Status and Breast Cancer", Royal College of Surgeons, England, 53, 1975.
# breast cancer = experiment: Example 5: Incidence of breast cancer in women treated with elemental iodine; format: in vivo, human (women); settings: comparison with published series
# From the text: The incidence of breast cancer in women treated with elemental iodine was compared with other published results, namely the results as published by the Ontario Cancer Research, and results published by Spratt.
# endometriosis = experiment: Example 6: Treatment of endometriosis with iodine; format: in vivo, human
# From the text: An effective dose of elemental iodinte (I2) to cause such a subsidence of nodularity is about 1 to 20 milligrams per day. A daily dosage of elemental iodine for the treatment of endometriosis of about 3 milligrams to about 6 milligrams is also useful. The daily dosage can be administered in an aqueous solution containing about 0.30 milligrams of elemental iodine per millilitre of solution.
# Two patients, both with a diagnosis of endometriosis and both treated with birth control pills previously with little result, were treated with diatomic iodine for 10 and 18 months, respectively.
# [2] = system: DMBA-induced mammary tumors; experiment: Dimethylbenzanthracene studies: mean tumor volume in DMBA treated rats; format: in vivo, Sprague-Dawley virgin female rats; settings: for Mean Tumor Volume, Exp. / Mean Tumor Volume, Week 10 / Mean Tumor Volume, Week 12 / Mean Tumor Volume, Week 14 / Mean Tumor Volume, Week 16 / Mean Tumor Volume, Week 18 / Mean Tumor Volume, Week 20 / Mean Tumor Volume, Week 22: DMBA treated rats, in mm³ (unit assumed)
# Procedure: After adequate orientation of 48 hours, 80 Sprague-Dawley virgin female rats (A.A.I., PA) of 100-124 grams and approximately 37 days old, were divided randomly into eight groups each containing 10 rats. The animals were identified according to their phase, group, and rat numbers. The eight groups were labelled as Groups, IA1, IA2, IB1, IB2, IIA1, IIA2, IIB1, and IIB2. Each rat was weighed and marked for identification. Ear identification were as follows:
# Group I was initially fed a normal diet and provided with double distilled drinking water (Ionics and IWT). Group II was initially fed a Remington iodine-deficient diet (Teklad, WI) during which they received double distilled drinking water.
# At the end of fourteen days, and at 50-56 days old, groups I and II were divided into groups A and B. Groups IA and IIA were treated with 15 mg 7,12 Dimethylbenzanthracene (Eastman Kodak, NY) dissolved in 1 ml sesame oil by gavage. Groups IB and IIB were given a sham feeding of 1 ml of sesame oil at this time also. Only 10 rats a day were given this treatment. For the first twelve hours after treatment, the rats were housed in the fume hood and then taken to the Animal House where they were placed in the same room as groups IB and IIB. The rats in groups IA and IIA continued to be fed a normal diet and iodine-deficient diet, respectively. Groups IB and IIB also continued to receive their respective diets.
# The following phases received iodine replacement therapy at these times:
# Phase 1--at time of initial feeding of Remington diet
# Phase 2--at time of DMBA pulse
# Phase 3--at 10 days after DMBA treatment
# Groups IA1, IB1, IIA1, and IIB1 received 2.67 ml/1000 ml dilution of a 0.3 mg/ml "mother" iodine concentrate for the rest of the experiment. The technique for making the iodine solution was as follows:
# 4) A second container was used to measure 2.67 ml of concentrate to 1000 ml DD H2 O. This dilution was then used as drinking water for the animals.
# This daily dosage corresponds to the rats receiving 0.07-0.09 mg per kilogram body weight. The other groups continued to receive double distilled drinking water. Thus, the groups were arranged in the following order:
# Palpations of the breasts were performed twice a week for the first 30 days after pulse DMBA was administered. The masses, if any, were drawn, measured by caliper, described as to consistency and freedom of motion, and all observations were recorded. After 30 days, the above observations were taken (including framing of tumor if larger than 5 mm) every 2 days and recorded.
# Group 1, which was initially fed a normal diet, and Group 2 which was initially fed a Remington iodine deficient diet. Within the two groups are four subgroups, phases 1, 2 and 3, and a control. Phase 1 received iodine replacement therapy at the time of the initial feeding of either the Remington diet or the normal diet. Phase 2 received iodine replacement therapy at the time of DMBA treatment. Phase 3 received iodine replacement therapy 10 days after DMBA treatment.
# *Volumes were calculated using the formula 4/3 ((L + W) .div. 2)
# All measurements were recorded in centimeters designating the greatest
# breast estrogen receptor = experiment: Breast estrogen receptor activity and iodine; set-up: species or system rat
# From the text: The biochemical pathway seems to be an intracellular attraction by iodine for estrogen receptors. […] Thus, cell metabolism is altered when there is "inadequate" iodine present.
# A characteristic of breast cancer is the change in response to estrogen and estrogen receptor variability.
# [3] = system: DMBA-induced mammary gland neoplasia; experiment: Example 4: Iodine treatment of induced breast tumors in rats; format: in vivo, rat
# From the text: DMBA, a carcinogen, causes mammary gland neoplasia in rats. If these tumors contain breast peroxidase, tney respond to iodine and estrogen treatment. However, as the tumors become less responsive to iodine (hormone independent), breast peroxidase is found to be lacking.
# [4] = system: breast tissue from a female rat on an iodine deficient diet; experiment: Iodine replacement therapy in iodine deficient rats, morphology of breast tissue; format: in vivo
# From the text: Studies on rats have included iodine replacement therapy in animals made iodine deficient by a Remington iodine-free diet.
# The first iodine product used in the reversal experiment was sodium iodide.
# FIG. 1 is a photomicrograph of the breast tissue of a human.
# Biological Trace Element Research, Volume 5, 1983, 399-412. The material disclosed in these articles is incorporated herein by reference.
# This deficiency can be obtained either through the use of an iodine deficient diet and/or through perchlorate treatment.
# dysplastic mastodynia = settings: women with dysplastic mastodynia; cited from earlier work
# [5] = system: breast tissue from a female rat on an iodine deficient diet; settings: Remington iodine-free diet; iodide salts in food, normal and excessive levels; cited from earlier work
# [6] = Group I, Normal Diet, Iodine Phase I
# [7] = Group I, Normal Diet, Iodine Phase II
# [8] = Group I, Normal Diet, Iodine Phase III
# [9] = Group II, ID (iodine-deficient) Diet, Iodine Phase I
# [10] = Group II, ID (iodine-deficient) Diet, Iodine Phase II
# [11] = Group II, ID (iodine-deficient) Diet, Iodine Phase III
smiles,measurement,setting,value
C#C[C@]1(O)CC[C@H]2[C@@H]3CCC4=Cc5oncc5C[C@]4(C)[C@H]3CC[C@@]21C [danazol],side effects in treatment of mammary dysplasia,fibrocystic disease,massive side effects
"Cc1c2ccccc2c(C)c2c1ccc1ccccc12 [dimethyl benzanthracene, 7,12 Dimethylbenzanthracene]",progression of fibrocystic dysplasia,[1],progression from the benign state of fibrocystic dysplasia to overt malignancy
"II [elemental iodine, diatomic iodine]",incidence of breast cancer versus women not so treated,breast cancer,less than the incidence of breast cancer in women who had not been so treated
same,nodularity of pelvic peritoneum,endometriosis; about 1 to 20 milligrams per day,subsidence of the nodularity of the patient's pelvic peritoneum
same,"overall response to iodine treatment, series of patients",endometriosis; no other medication during trial therapy,This series of patients has responded
same,effect of stopping medication,endometriosis; third patient,"asymptomatic for two cycles, and then their pain returned"
same,pelvic pain and nodularity on treatment,endometriosis; third patient,"within two cycles, with complete relief of pelvic pain and improvement in the pelvic nodularity on rectal examination"
same,cyclic lower abdominal pain,endometriosis; three patients treated for fibrocystic breast dysplasia,coincident dramatic decrease in their cyclic lower abdominal pain
same,effect of restarting medication,endometriosis; two patients,The subjective symptoms and physical findings again improved within one cycle
same,effect of stopping medication,endometriosis; two patients,"within one cycle, they had severe pain again, with increasing nodularity of the pelvic peritoneum on rectal examination"
same,pain on treatment,"endometriosis; two patients, 10 and 18 months",complete amelioration of their pain within one cycle of starting the medication
same,"Mean Tumor Volume, Exp.",[2]; [6],320.524
same,"Mean Tumor Volume, Week 10",[2]; [6],15.191
same,"Mean Tumor Volume, Week 12",[2]; [6],53.565
same,"Mean Tumor Volume, Week 14",[2]; [6],67.739
same,"Mean Tumor Volume, Week 16",[2]; [6],97.979
same,"Mean Tumor Volume, Week 18",[2]; [6],136.405
same,"Mean Tumor Volume, Week 20",[2]; [6],155.904
same,"Mean Tumor Volume, Week 22",[2]; [6],214.962
same,"Mean Tumor Volume, Exp.",[2]; [7],534.001
same,"Mean Tumor Volume, Week 10",[2]; [7],7.603
same,"Mean Tumor Volume, Week 12",[2]; [7],57.853
same,"Mean Tumor Volume, Week 14",[2]; [7],106.887
same,"Mean Tumor Volume, Week 16",[2]; [7],140.751
same,"Mean Tumor Volume, Week 18",[2]; [7],216.033
same,"Mean Tumor Volume, Week 20",[2]; [7],247.025
same,"Mean Tumor Volume, Week 22",[2]; [7],320.468
same,"Mean Tumor Volume, Exp.",[2]; [8],392.61
same,"Mean Tumor Volume, Week 10",[2]; [8],6.686
same,"Mean Tumor Volume, Week 12",[2]; [8],24.079
same,"Mean Tumor Volume, Week 14",[2]; [8],75.421
same,"Mean Tumor Volume, Week 16",[2]; [8],90.319
same,"Mean Tumor Volume, Week 18",[2]; [8],127.529
same,"Mean Tumor Volume, Week 20",[2]; [8],184.717
same,"Mean Tumor Volume, Week 22",[2]; [8],319.229
same,"Mean Tumor Volume, Exp.",[2]; [9],337.516
same,"Mean Tumor Volume, Week 10",[2]; [9],4.048
same,"Mean Tumor Volume, Week 12",[2]; [9],23.367
same,"Mean Tumor Volume, Week 14",[2]; [9],65.244
same,"Mean Tumor Volume, Week 16",[2]; [9],119.156
same,"Mean Tumor Volume, Week 18",[2]; [9],155.189
same,"Mean Tumor Volume, Week 20",[2]; [9],174.49
same,"Mean Tumor Volume, Week 22",[2]; [9],238.883
same,"Mean Tumor Volume, Exp.",[2]; [10],613.044
same,"Mean Tumor Volume, Week 10",[2]; [10],0.216
same,"Mean Tumor Volume, Week 12",[2]; [10],54.934
same,"Mean Tumor Volume, Week 14",[2]; [10],111.962
same,"Mean Tumor Volume, Week 16",[2]; [10],168.475
same,"Mean Tumor Volume, Week 18",[2]; [10],269.008
same,"Mean Tumor Volume, Week 20",[2]; [10],401.774
same,"Mean Tumor Volume, Week 22",[2]; [10],519.122
same,"Mean Tumor Volume, Exp.",[2]; [11],500.435
same,"Mean Tumor Volume, Week 10",[2]; [11],5.816
same,"Mean Tumor Volume, Week 12",[2]; [11],36.68
same,"Mean Tumor Volume, Week 14",[2]; [11],81.81
same,"Mean Tumor Volume, Week 16",[2]; [11],177.888
same,"Mean Tumor Volume, Week 18",[2]; [11],203.824
same,"Mean Tumor Volume, Week 20",[2]; [11],356.807
same,"Mean Tumor Volume, Week 22",[2]; [11],393.328
same,"mean tumor volume, in words","[2]; pretreatment before DMBA, versus nontreated controls",reduction of mean tumor volume as compared to the nontreated controls; also recorded: reduced the mean tumor volume in the DMBA treated rats
same,breast estrogen receptor activities after iodine replacement,breast estrogen receptor; iodine deficiency,disappears upon iodine replacement
same,role in estrogen receptor function,breast estrogen receptor; rats,necessary for normal estrogen receptor function in rats
same,tumor response,"[3]; about 0.5 mg per 100 gm body weight, orally or intraperitoneally, preliminary",more response to both diatomic iodine and estrogen
"[O-][Cl+3]([O-])([O-])O [perchlorate, reference compound]",effect on tumorigenesis and iodide therapy,[3]; peroxidase-blocking agent,increases the tumorigenesis and the effectiveness of iodide therapy
"[I-].[K+] [potassium iodide, reference compound]",reversal of pathological changes / tissue morphology of rat breast after iodine replacement,[4],only minimal success
same,improvement rate,dysplastic mastodynia,71%
"[I-].[Na+] [sodium iodide, reference compound]",reversal of pathological changes / tissue morphology of rat breast after iodine replacement,[4],"reversal of the pathological changes to a degree with the partial subsidence of cyst formation, epithelial hyperplasia and fibrosis. The interacinar fibrosis remained"
same,reversal of pathological changes / tissue morphology of rat breast after iodine replacement,[4]; listed as sodium iodide (NaI),only minimal success
same,reversal of pathological changes / tissue morphology of rat breast after iodine replacement,[4]; listed as sodium iodine,"The epithelial hyperplasia regressed and the cystic spaces disappeared, but the fibrous tissue remained"
same,breast dysplasia after iodine replacement,[5],the breast dysplasia appeared to abate with a partial subsidence of epithelial hyperplasia and a loss of cystic spaces but with a continuation of the fibrosis of the syndrome

# Reference: patent US6019970A, “Treatment of iodine deficiency diseases” (priority 1997, dated 2000)
